# Assays:
# Experiment in all cases: Test A pre-/postemergence herbicide test
# [1] = tested on: barnyardgrass; assay type: in vivo, Echinochloa crus-galli
# Description: (§1) Seeds of plant species selected from barnyardgrass (Echinochloa crus-galli (L.) Beauv.), downy bromegrass (Bromus tectorum L.), large crabgrass (Digitaria sanguinalis (L.) Scop.), giant foxtail (Setaria faberi Herrm.), morningglory (Ipomoea spp.), redroot pigweed (Amaranthus retroflexus L.) and velvetleaf (Abutilon theophrasti Medik.) were planted into a sandy loam soil and treated preemergence with a directed soil spray using test chemicals formulated in a non-phytotoxic solvent mixture which included a surfactant. At the same time plants selected from these species were also treated postemergence by spraying to runoff with test chemicals formulated.
# (§2) Plants ranged in height from 2 to 10 cm and were in the one- to two-leaf stage for the postemergence treatment. Treated plants and untreated controls were maintained in a greenhouse for approximately ten days, after which time all treated plants were compared to untreated controls and visually evaluated for injury. Plant response ratings, summarized in Table A, are based on a 0 to 100 scale where 0 is no effect and 100 is complete control. A dash (-) response means no test results.
# [2] = tested on: large crabgrass; assay type: in vivo, Digitaria sanguinalis
# Description: as §1, §2
# [3] = tested on: giant foxtail; assay type: in vivo, Setaria faberi
# Description: as §1, §2
# [4] = tested on: morningglory; assay type: in vivo, Ipomoea spp.
# Description: as §1, §2
# [5] = tested on: redroot pigweed; assay type: in vivo, Amaranthus retroflexus
# Description: as §1, §2
# [6] = tested on: velvetleaf; assay type: in vivo, Abutilon theophrasti
# Description: as §1, §2
# [7] = Postemergence, 125 g ai/ha, 0 to 100 scale, 0 no effect, 100 complete control
# [8] = Postemergence, 500 g ai/ha, 0 to 100 scale, 0 no effect, 100 complete control
# [9] = Preemergence, 500 g ai/ha, visual rating, 0 to 100 scale (0 no effect, 100 complete control)
# [10] = preemergence, 125 g ai/ha, visual injury, 0 to 100 scale (0 no effect, 100 complete control)
# [11] = Postemergence, 250 g ai/ha, 0 to 100 scale, 0 no effect, 100 complete control
# [12] = Postemergence, 1000 g ai/ha, 0 to 100 scale, 0 no effect, 100 complete control
# [13] = Preemergence, 1000 g ai/ha, visual rating, 0 to 100 scale (0 no effect, 100 complete control)
# [14] = preemergence, 250 g ai/ha, visual injury, 0 to 100 scale (0 no effect, 100 complete control)
# [15] = Postemergence, 2000 g ai/ha, 0 to 100 scale, 0 no effect, 100 complete control
# [16] = Preemergence, 2000 g ai/ha, visual rating, 0 to 100 scale (0 no effect, 100 complete control)
# [17] = preemergence, 500 g ai/ha, visual injury, 0 to 100 scale (0 no effect, 100 complete control)
structure (smiles),measurement,setting,value
C=Cn1nc(C(C)(C)C)cc1C(=O)Nc1cccc(C(=O)NCCCl)c1 [Compound 38],Barnyardgrass plant response rating,[1]; [7],40
same,"Plant response rating, Barnyardgrass",[1]; [8],55
same,Barnyardgrass plant response rating,[1]; [9],5
same,Barnyardgrass plant response rating,[1]; [10],0
same,"Crabgrass, Large plant response rating",[2]; [7],30
same,"Plant response rating, Crabgrass, Large",[2]; [8],60
same,"Crabgrass, Large plant response rating",[2]; [9],10
same,"Crabgrass, Large plant response rating",[2]; [10],0
same,"Foxtail, Giant plant response rating",[3]; [7],50
same,"Plant response rating, Foxtail, Giant",[3]; [8],60
same,"Foxtail, Giant plant response rating",[3]; [9],0
same,"Foxtail, Giant plant response rating",[3]; [10],0
same,Morningglory plant response rating,[4]; [7],0
same,"Plant response rating, Morningglory",[4]; [8],0
same,Morningglory plant response rating,[4]; [9],10
same,Morningglory plant response rating,[4]; [10],5
same,Pigweed plant response rating,[5]; [7],50
same,"Plant response rating, Pigweed",[5]; [8],70
same,Pigweed plant response rating,[5]; [9],0
same,Pigweed plant response rating,[5]; [10],0
same,Velvetleaf plant response rating,[6]; [7],10
same,"Plant response rating, Velvetleaf",[6]; [8],20
same,Velvetleaf plant response rating,[6]; [9],5
same,Velvetleaf plant response rating,[6]; [10],0
C=Cn1nc(C(C)(C)C)cc1C(=O)Nc1cccc(C(=O)NC2CC2)c1 [Compound 39],Barnyardgrass plant response rating,[1]; [11],10
same,"Plant response rating, Barnyardgrass",[1]; [12],55
same,Barnyardgrass plant response rating,[1]; [13],25
same,Barnyardgrass plant response rating,[1]; [14],15
same,"Crabgrass, Large plant response rating",[2]; [11],10
same,"Plant response rating, Crabgrass, Large",[2]; [12],35
same,"Crabgrass, Large plant response rating",[2]; [13],85
same,"Crabgrass, Large plant response rating",[2]; [14],35
same,"Foxtail, Giant plant response rating",[3]; [11],10
same,"Plant response rating, Foxtail, Giant",[3]; [12],45
same,"Foxtail, Giant plant response rating",[3]; [13],40
same,"Foxtail, Giant plant response rating",[3]; [14],20
same,Morningglory plant response rating,[4]; [11],0
same,"Plant response rating, Morningglory",[4]; [12],0
same,Morningglory plant response rating,[4]; [13],20
same,Morningglory plant response rating,[4]; [14],0
same,Pigweed plant response rating,[5]; [11],70
same,"Plant response rating, Pigweed",[5]; [12],75
same,Pigweed plant response rating,[5]; [13],100
same,Pigweed plant response rating,[5]; [14],55
same,Velvetleaf plant response rating,[6]; [11],10
same,"Plant response rating, Velvetleaf",[6]; [12],10
same,Velvetleaf plant response rating,[6]; [13],20
same,Velvetleaf plant response rating,[6]; [14],10
Cn1nc(C(C)(C)C)cc1C(=O)Nc1cccc2c1CCC2=NO [Compound 111],Barnyardgrass plant response rating,[1]; [8],0
same,"Plant response rating, Barnyardgrass",[1]; [15],0
same,Barnyardgrass plant response rating,[1]; [9],0
same,Barnyardgrass plant response rating,[1]; [16],10
same,"Crabgrass, Large plant response rating",[2]; [8],10
same,"Plant response rating, Crabgrass, Large",[2]; [15],10
same,"Crabgrass, Large plant response rating",[2]; [9],25
same,"Crabgrass, Large plant response rating",[2]; [16],30
same,"Foxtail, Giant plant response rating",[3]; [8],0
same,"Plant response rating, Foxtail, Giant",[3]; [15],0
same,"Foxtail, Giant plant response rating",[3]; [9],45
same,"Foxtail, Giant plant response rating",[3]; [16],75
same,Morningglory plant response rating,[4]; [8],5
same,"Plant response rating, Morningglory",[4]; [15],0
same,Morningglory plant response rating,[4]; [9],0
same,Morningglory plant response rating,[4]; [16],0
same,Pigweed plant response rating,[5]; [8],5
same,"Plant response rating, Pigweed",[5]; [15],10
same,Pigweed plant response rating,[5]; [9],10
same,Pigweed plant response rating,[5]; [16],10
same,Velvetleaf plant response rating,[6]; [8],0
same,"Plant response rating, Velvetleaf",[6]; [15],0
same,Velvetleaf plant response rating,[6]; [9],0
same,Velvetleaf plant response rating,[6]; [16],0
CCc1nn(C(C)(C)C)cc1C(=S)Nc1cc(C(=S)N(C)C)ccc1F [Compound 453],Barnyardgrass plant response rating,[1]; [7],10
same,Barnyardgrass plant response rating,[1]; [8],15
same,Barnyardgrass plant response rating,[1]; [10],20
same,Barnyardgrass plant response rating,[1]; [17],45
same,"Crabgrass, Large plant response rating",[2]; [7],10
same,"Crabgrass, Large plant response rating",[2]; [8],10
same,"Crabgrass, Large plant response rating",[2]; [10],10
same,"Crabgrass, Large plant response rating",[2]; [17],15
same,"Foxtail, Giant plant response rating",[3]; [7],10
same,"Foxtail, Giant plant response rating",[3]; [8],10
same,"Foxtail, Giant plant response rating",[3]; [10],0
same,"Foxtail, Giant plant response rating",[3]; [17],0
same,Morningglory plant response rating,[4]; [7],10
same,Morningglory plant response rating,[4]; [8],10
same,Morningglory plant response rating,[4]; [10],0
same,Morningglory plant response rating,[4]; [17],0
same,Pigweed plant response rating,[5]; [7],10
same,Pigweed plant response rating,[5]; [8],20
same,Pigweed plant response rating,[5]; [10],10
same,Pigweed plant response rating,[5]; [17],10
same,Velvetleaf plant response rating,[6]; [7],5
same,Velvetleaf plant response rating,[6]; [8],10
same,Velvetleaf plant response rating,[6]; [10],0
same,Velvetleaf plant response rating,[6]; [17],0

# — US20060069132A1, “Azolecarboxamide herbicides” (priority 2004, published 2006)
